Measured values from patent publication US6613536B1, “Synthetic peptides and pharmaceutical compositions comprising them for the treatment of systemic lupus erythematosus” (Yeda Research and Development Co. Ltd., priority 1995, dated 2003).
“Also recorded” adds a separate entry of the source.

Legend:
BALB/c mice = experiment: Neonatal tolerization of BALB/c mice, then autoantibody titers after immunization; assay type: in vivo, mouse; settings: BALB/c neonates, 100 μg i.p. twice; immunized 6-7 weeks later with peptide Ia or mAb 5G12
Experimental: In order to either prevent induction of experimental SLE or to cure mice afflicted with the disease, the following procedures were used: (i) Newborn mice were tolerized with a peptide of the invention (100 μg of the peptide in PBS, intraperitoneally at 24 and 72 hours after birth). Six weeks later, the mice were immunized with the pathogenic autoantibody, e.g. 5G12 (16/6 Id+) and examined for disease manifestations; (ii) A first group of adult mice was injected with various concentrations of the peptides before disease induction with the pathogenic autoantibody or pathogenic T cell line; another group was injected with the peptides to be tested for their therapeutic effect six weeks following immunization at the peak of the serological response; and a further group was treated at 4-6 months post-immunization after the establishment of the overt SLE disease. The number of injections with the peptides was determined based on their effect on the disease induction and progression. The effect of the peptide treatment on T cell proliferation, on the autoantibody production and on the disease manifestations was then evaluated.
In order to further elucidate the role of the peptides in SLE, peptide Ia was utilized for the induction of tolerance in BALB/c mice. Newborn mice were injected twice (at day 1 and 3) with either peptide Ia or a control peptide. […]

BALB/c and SJL mice = experiment: Clinical manifestations of SLE in immunized mice (WBC, proteinuria, kidney analysis); assay type: in vivo, mouse; settings: for W.B.C., white blood cell counts / proteinuria: five months after immunization; for number of white blood cells (in words): in comparison to non-immunized mice or p278-immunized mice
Experimental: The erythrocyte sedimentation rate was determined by diluting the heparinized blood in PBS at a ratio of 1:1. The diluted blood was then passed to a microsampling pipette and the sedimentation was measured 6 hours later. White blood cell counts were determined after the hemolysis of heparinized blood. Proteinuria was measured in a semi-quantitative manner, using a Combistix kit (Ames, Stoke Poges, Slough, U.K.). Immunohistology was performed by incubation of fixed frozen cryostat sections with FITC-labeled antibodies to mouse Ig. Staining was visualized via use of a fluorescent microscope.
BALBtc and SJL mice were immunized with mAb 5G12 or with peptides Ia and IIIa, and five months later were checked by two criteria for manifestation of SLE: white blood cell count (WBC) and proteinuria.
(i) White blood cell count (WBC): The mice were bled, their blood was diluted 1:10 with 1% (vol/vol) acetic acid in order to eliminate the red blood cells, and white blood cells were counted under a normal light microscope.
Proteinuria: The urine of the mice was tested using combisticks (Combistix Kit, Ames) for the presence of protein.

[1] = tested on: T cell line specific to peptide IIIa of SJL origin; experiment: Proliferation and cytokine secretion of peptide IIIa-specific T cell line; assay type: cell-based, mouse
Experimental: A further test which can be conducted is to test for the ability of the analogs to inhibit cytokine secretion by the T cell line or by T lymphocytes oh lymph nodes of mice that are high responders to SLE-inducing autoantibodies. The cytokines are detected as follows: IL-1 activity is assessed either by ELISA using a pair of capture and detecting antibodies (as described below for IL-4, IL-6, IL-10) or using the LBRM-33(1A5) assay (Conlon, 1983) in which 1A5 cells are stimulated in the presence of phytohemagglutinin (PHA), with either supernatants or recombinant IL-1 at various concentrations to secrete IL-2. […] Stimulation of the CTLL line by IL-2 is measured after 24 hr by incorporation of ^3[H]-thymidine. IL-2 is directly detected using the IL-2 dependent CTLL line or by ELISA. Levels of IL-4, IL-6, IL-10, INFγ and TNFα in the supernatants are determined by ELISA using antibodies to the various cytokines (Phamingen, San Diego, Calif., USA) according to the manufacturer's instructions.
T cell lines and clones specific to the 16/6 Id were established from immunized lymph node cells as previously described (Axelrod and Mozes, 1986). […] At the end of 48 hours incubation, 0.5 μCi of ^3H-thymidine were added for an additional 18 hours, after which cells were harvested and radioactivity was counted. […]

| Substance | anti-DNA and anti-NE autoantibody titers after neonatal tolerization (BALB/c mice) | protein level in urine (in words) (BALB/c and SJL mice; BALB/c mice) | W.B.C., white blood cell counts (BALB/c and SJL mice; BALB/c mice) [per mm^3] | proteinuria (BALB/c and SJL mice; BALB/c mice) [g/L] | protein level in urine (in words) (BALB/c and SJL mice; SJL mice) | proteinuria (BALB/c and SJL mice; SJL mice) [g/L] | number of white blood cells (in words) (BALB/c and SJL mice) | cytokine secretion of T cell line upon stimulation [1] | W.B.C., white blood cell counts (BALB/c and SJL mice; SJL mice) [per mm^3] |
| --- | --- | --- | --- | --- | --- | --- | --- | --- | --- |
| TGYYMQWVKQSPEKSLEWIG [peptide Ia] | did not produce significant titers of antibodies to either DNA or nuclear extract antigens; also recorded: produced lower levels of anti-DNA and anti-NE antibodies | High levels of protein | 3375 ± 350 | 0.88 ± 0.076 | smaller increase in protein level | 0.375 ± 0.04 | lower number of white blood cells |  |  |
| YYYCARFLWEPYAMDYWGQGS (YYCARFLWEPYAMDYWGQGS) [peptide IIIa, based on the CDR3 region of the VH chain of mAb 5G12] |  |  | 3325 ± 400 | 0.30 ± 0.01 |  | 0.9 ± 0.075 | lower number of white blood cells | secreted the Thl-type cytokines, namely, IL-2, IFNγ and TNFα | 3300 ± 1343 |
